The term AC50 denotes the midpoint of the concentration-response curve, whichever way the signal moves.

The structures appear in SMILES notation.

Drawing on PubChem BioAssay AID493102 (Broad Institute, 2011), this text covers AC50 for 99 compounds.

This test relates to SK-MEL-5 TRPM1-promoter luciferase reporter, 24 h. The experiment in a line: reducers of TRPM1 reporter luminescence, concentration series – cell-based, SK-MEL-5, cherry-picked, set 4, MITF inhibitor project, dose response (AID 493102).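 Note: actives lower the luciferase signal so the potency reflects inhibition of reporter expression.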

Turning to `O=C(Nc1ccc(Cl)cc1)Nc1cccc(C(=O)O)c1`, the AC50 was 3.79 µM.

As for `CCCCCCn1c(=O)c(C(=O)Nc2cnccn2)c(O)c2ccccc21`, the AC50 was 3.68 µM.

Turning to `CC(C)Oc1ccc(C(CCNCc2ccc(O)cc2)c2ccccc2)cc1` (centres undefined), the concentration at half-maximal activity (AC50) was 12.8 µM.

On to `Cc1ccc(C(=O)N/N=C/c2ccc([N+](=O)[O-])s2)cc1`, for which the AC50 is 2.2 µM.

Regarding `O=C(c1nnsc1S(=O)(=O)c1ccc(Cl)cc1)N1CCOCC1`, the AC50 is 9.51 µM.

As to `O=C1NC(=O)C(=Cc2ccc(-c3ccc(Cl)cc3)o2)C(=O)N1`, the AC50 is 9.2 µM.

As for `O=[N+]([O-])c1cc(CN2CCN(c3ccccc3)CC2)c(O)c2ncccc12`, the AC50 was 8.3 µM.

For the compound `CC(=O)N(\C=C/C=C/C=C1\Sc2ccccc2C1=O)c1ccccc1`, the AC50 was 8 µM.

In the case of `CC(C)N1C(=O)/C(=C/C=C/c2ccco2)C(=O)N(Cc2ccco2)C1=O`, the AC50 is 9.97 µM.

As to `O=c1nc(N/N=C/c2ccccn2)cn[nH]1`, the AC50 is 4.65 µM.

Take `CCC(C)(C)c1ccc(OCCCC[n+]2ccccc2)c(C(C)(C)CC)c1`: the AC50 was 4.35 µM.

Take `COc1ccccc1NC(=O)c1cnc(SCC(=O)NCC2CCCO2)n(C)c1=O` (centres undefined): the AC50 is 8.88 µM.

Turning to `COc1ccc(C(NC(C)=O)c2ccc3cccnc3c2O)c(OC)c1` (centres undefined), the AC50 is 5.15 µM.

With `CCOC(=O)c1cc([N+](=O)[O-])c([N+](=O)[O-])cc1NC(C)=O`, the AC50 was 24.2 µM.

With `CCOC(=O)c1[nH]cnc1N=Nc1c(O)ccc2ccccc12`, the AC50 is 3.76 µM.

Regarding `CN1CCN(C2=C(NS(=O)(=O)c3ccccc3)C(=O)c3ccccc3C2=O)CC1`, the AC50 is 6.9 µM.

Take `Oc1c(CN2CCCCC2)cc(COCc2ccccc2)c2cccnc12`: the AC50 is 2.17 µM.

Consider `O=C(O)c1ccc(N/N=C/c2ccc(OC(=O)c3cccc(Cl)c3)cc2)cc1`, for which the concentration at half-maximal activity (AC50) was 3.21 µM.

`Cc1ccc(NC(=O)c2ccc([N+](=O)[O-])o2)cc1S(=O)(=O)N1CCOCC1`: the AC50 was 11.4 µM.

For `CN(C)S(=O)(=O)c1ccc(-c2csc(N/N=C/c3ccco3)n2)cc1`, the half-maximal activity concentration (AC50) was 3.9 µM.

Consider `Cc1ccc(-c2c[n+](Cc3ccc(Cl)cc3)c3n2CCC3)cc1`, for which the AC50 was 14.2 µM.

`CC(C)(C)c1ccc(C(=O)Nc2ccc(CC(=O)O)cc2)o1`: the AC50 was 0.329 µM.

`COc1cc(C2C(C#N)=C(N)Oc3cc4c(cc32)OCO4)cc(OC)c1OC` (centres undefined): the AC50 is 0.365 µM.

As to `O=C(NC(=S)NCc1ccccc1)c1ccccc1`, the AC50 was 22.1 µM.

For the compound `Nc1nnnn1/N=C/C(Br)=C/c1ccccc1`, the AC50 is 5.44 µM.

`O=C(Nc1ccccc1N1CCOCC1)c1ccc([N+](=O)[O-])s1`: the concentration at half-maximal activity (AC50) is 12.3 µM.

For the compound `CCOC(=O)N1C(=O)[C@@](CC)(c2ccccc2)N1C(=O)OCC`, the AC50 was 12.5 µM.

Take `O=C(Nc1ccc(N2CCOCC2)cc1)c1cnsn1`: the half-maximal activity concentration (AC50) is 3.05 µM.

In the case of `Cc1ccc(-n2nnnc2CNC(=O)c2ccc([N+](=O)[O-])o2)cc1C`, the AC50 is 9.72 µM.

Regarding `O=S(=O)(c1ccc(F)cc1)c1snnc1-c1ccccc1`, the AC50 was 15.1 µM.

For the compound `Cn1nnnc1Sc1ncnc2scc(-c3ccsc3)c12`, the AC50 was 7.95 µM.

Consider `COC(=O)c1ccc2c(c1O)C(=O)c1ccccc1C2=O`, for which the AC50 was 1.61 µM.

Turning to `O=C(Nc1ccc(S(=O)(=O)NC2=NCCCCC2)cc1)c1ccc([N+](=O)[O-])s1`, the AC50 is 5.11 µM.

For `COc1ccc(Oc2cc(NC(=O)c3nn(C)cc3[N+](=O)[O-])cc([N+](=O)[O-])c2)cc1`, the AC50 was 8.94 µM.

Consider `COC1=C(Nc2ccc(O)cc2)C(=O)c2ccccc2C1=O`, for which the AC50 was 5.14 µM.

On to `CCOC(=O)/C=c1\s/c(=C\c2ccc3cc(OC)ccc3c2)c(=O)n1CC(=O)NCC1CCCO1` (centres undefined), for which the AC50 is 5.73 µM.

Consider `C/C(=N\NC(=O)C1COc2ccccc2O1)c1ccccn1` (centres undefined), for which the AC50 was 4.49 µM.

On to `CC(C)(C)c1ccc(Cn2c(=N)n(CC(O)c3ccco3)c3ccccc32)cc1` (centres undefined), for which the AC50 was 11.8 µM.

As for `OCCNc1c2ccccc2nc2c(F)c(F)c(F)c(F)c12`, the AC50 was 4.14 µM.

For the compound `COc1ccc2nc(N3CCN(C(=O)c4ccc([N+](=O)[O-])o4)CC3)sc2c1`, the AC50 is 5.81 µM.

`O=C(N/N=C/c1ccc([N+](=O)[O-])s1)c1ccccc1`: the AC50 was 2.29 µM.

Take `O=[N+]([O-])c1cc(Cl)cc(/C=N\Nc2ccccn2)c1O`: the AC50 is 4.49 µM.

For the compound `CCOC(=O)Cn1cc([N+](=O)[O-])nc1[N+](=O)[O-]`, the AC50 was 29.5 µM.

In the case of `CC(C)(C)c1ccc(-c2noc(CCC(=O)NCC3CCCO3)n2)cc1` (centres undefined), the AC50 is 0.275 µM.

As for `COc1ccc(C)cc1Nc1nc(N)c2cc(OC)c(OC)cc2n1`, the AC50 is 14.2 µM.

As for `CC(=O)Nc1ccc(S(=O)(=O)NC2=C(N3CCN(C)CC3)C(=O)c3ccccc3C2=O)cc1`, the AC50 is 3.65 µM.

As for `CC1CCC(C(C)C)C(OC(=O)Cn2c(-c3ccc(Br)cc3)[n+](C)c3ccccc32)C1` (centres undefined), the concentration at half-maximal activity (AC50) is 7.12 µM.

With `O=C(Nc1ccc2nc3n(c(=O)c2c1)CCCCC3)c1cc([N+](=O)[O-])ccc1F`, the AC50 is 10.7 µM.

For the compound `CN(Cc1ccccc1)C1=CC(=[N+]2CCCCC2)CC(C)(C)C1`, the concentration at half-maximal activity (AC50) is 2.46 µM.

As for `O=C1Nc2ccc(Br)cc2/C1=C/C(=O)c1ccc2c(c1)OCO2`, the AC50 is 25.5 µM.

For the compound `O=C(N/N=C/c1cc([N+](=O)[O-])ccc1N1CCNCC1)c1ccc([N+](=O)[O-])cc1`, the concentration at half-maximal activity (AC50) was 8.19 µM.

For `CC(=O)Cn1ncc(Br)c(Br)c1=O`, the AC50 was 15.8 µM.

As to `O=C(Nc1ccc(Nc2ccncc2)cc1)c1ccc([N+](=O)[O-])cc1`, the AC50 is 7.22 µM.

`Cc1ccc2nc(NC(=O)CCCC(=O)O)sc2c1`: the AC50 was 12.1 µM.

As for `N=c1n(CC(=O)c2ccc([N+](=O)[O-])cc2)c2ccccc2n1Cc1ccccc1Cl`, the AC50 is 4.03 µM.

On to `Cc1c(NC(=O)C(C)OC(=O)c2ccc([N+](=O)[O-])s2)c(=O)n(-c2ccccc2)n1C` (centres undefined), for which the AC50 is 34.1 µM.

`COc1ccc(-c2c[n+](CC(=O)OC3CC(C)CCC3C(C)C)c3n2CCC3)cc1` (centres undefined): the AC50 was 4.87 µM.

`O=C(/C=C/c1cccc([N+](=O)[O-])c1)c1cccs1`: the AC50 is 15.3 µM.

Take `Cc1cc(/C=C2\Sc3ccccc3N2C)cc(C)[n+]1CC1CCCO1` (centres undefined): the AC50 was 1.82 µM.

As for `O=C(N/N=C/c1ccccn1)c1cc([N+](=O)[O-])cc([N+](=O)[O-])c1`, the concentration at half-maximal activity (AC50) is 6.53 µM.

In the case of `COc1ccc(S(=O)(=O)N(C(C)=O)c2ccc(OC(C)=O)c3ccccc23)cc1[N+](=O)[O-]`, the AC50 was 11.6 µM.

For `Cc1cc(C)c2nc3nc(C)cc(C)c3c(N)c2c1`, the half-maximal activity concentration (AC50) is 5.72 µM.

Turning to `Cc1cc(C(C)(C)C)cc(C)c1Cn1c2[n+](c3ccc(C(F)(F)F)cc31)CCCCC2`, the AC50 is 7.55 µM.

Take `COc1cccc2c1C(=O)C=C(C)C2=O`: the AC50 is 7.83 µM.

`COc1cc(C2C(C#N)=C(N)Oc3cc(N(C)C)ccc32)cc2c1OCO2` (centres undefined): the AC50 is 0.601 µM.

As for `Cc1nc2ccccc2n1/N=C/c1ccc([N+](=O)[O-])s1`, the AC50 is 3.51 µM.

Regarding `O=C(/C=C/Nc1ccccc1Br)c1ccccn1`, the AC50 was 0.899 µM.

As to `CCN(Cc1ccc(OC)c(F)c1)C(=O)CCl`, the AC50 was 3.36 µM.

Regarding `CC(C)C(=O)NC(c1ccco1)c1ccc2cccnc2c1O` (centres undefined), the concentration at half-maximal activity (AC50) is 8.18 µM.

`CC1CN(C(=O)CCC(=O)NCCCN2CCC(Cc3ccccc3)CC2)c2cc(Cl)ccc2O1` (centres undefined): the half-maximal activity concentration (AC50) is 16.2 µM.

Take `CCOc1ccc2nc(NC3=NC(c4ccc(OC)cc4)CC(=O)N3)nc(C)c2c1` (centres undefined): the AC50 is 9.49 µM.

Turning to `O=C1C(Nc2ccccc2)=C(N2CCCCC2)C(=O)c2ccccc21`, the concentration at half-maximal activity (AC50) is 6.67 µM.

As for `Cc1ccc2nc(NC(=O)CSCC(=O)OCC(=O)c3ccccc3)sc2c1`, the half-maximal activity concentration (AC50) is 5.78 µM.

For the compound `O=C(Nc1ccc(N2CCN(C(=O)c3ccccc3)CC2)cc1)c1ccc([N+](=O)[O-])o1`, the AC50 was 17.9 µM.

For `O=C(Nc1ccc(OC(=O)N2CCCCC2)cc1)N1CCOCC1`, the AC50 was 27.4 µM.

As for `COc1ccc2[nH]cc(C(=O)CCl)c2c1`, the concentration at half-maximal activity (AC50) is 5.65 µM.

Regarding `CC(=O)c1c(C)oc2c1C(=O)c1ccccc1C2=O`, the AC50 was 6.68 µM.

Consider `O=C1NC(=S)NC(=O)C1=Cc1cccc2cc3ccccc3cc12`, for which the AC50 was 4.81 µM.

Turning to `CC1CCC(C(C)C)C(OC(=O)C[n+]2cc(-c3ccc(Cl)cc3)n3c2CCCCC3)C1` (centres undefined), the AC50 is 6.97 µM.

Regarding `C=C1C(=O)O[C@@H]2[C@H]1[C@@H](OC(=O)/C(C)=C/C)C/C(C)=C\C(=O)/C=C(\C)[C@@H]2O`, the AC50 was 7.07 µM.

Turning to `O=c1c2ccccc2cnn1CCOc1ccccc1`, the AC50 was 7.2 µM.

As to `O=C(N/N=C/c1ccc([N+](=O)[O-])o1)c1ccc(O)cc1`, the AC50 was 5.2 µM.

Consider `COC1=C(Nc2ccccc2)C(=O)c2ccccc2C1=O`, for which the concentration at half-maximal activity (AC50) is 4.53 µM.

Regarding `CCOc1cc(NC(=O)CCl)c(OCC)cc1NC(=O)CCl`, the AC50 was 5.5 µM.

As for `Cc1cccc(N2C(=O)NC(=O)/C(=C\C=C\c3ccco3)C2=O)c1`, the AC50 is 5.75 µM.

On to `COc1ccc(-c2cc3c(nn2)-c2ccccc2C3=O)cc1`, for which the AC50 is 4.22 µM.

Turning to `COc1cccc(N2CCN(C(=O)c3ccc(CS(=O)c4ccccc4Cl)o3)CC2)c1` (centres undefined), the AC50 is 0.894 µM.

As to `COc1ccc(S(=O)(=O)Nc2ccc(O)c3ccccc23)cc1`, the AC50 was 9.07 µM.

`COc1cccc(CNCCc2c[nH]c3ccccc23)c1OCc1ccccc1`: the AC50 is 14.4 µM.

With `O=C(COC(=O)CCN1C(=O)/C(=C\C=C\c2ccccc2)SC1=S)Nc1cc(F)ccc1F`, the half-maximal activity concentration (AC50) was 7.49 µM.

Consider `C=CCN=C1NN=C(c2ccc3c(c2)OCCO3)CS1`, for which the AC50 is 3.37 µM.

For `COC(=O)CSC1=C(C#N)C(=O)NC(c2ccccc2)S1` (centres undefined), the AC50 was 7.06 µM.

Take `CC1CCC/C=C/C(=O)c2c(O)cc(O)cc2CC(=O)O1` (centres undefined): the AC50 was 5.79 µM.

For `COc1ccc(-n2cc(-c3ccc(C)cc3)[n+]3c2SCC3)cc1`, the AC50 was 2.91 µM.

On to `N/C(=N\OC(=O)c1ccccc1Cl)c1ccccn1`, for which the AC50 is 8.87 µM.

As for `Cc1nc2ccccn2c1C(=O)N/N=C/c1ccc([N+](=O)[O-])o1`, the AC50 was 8.03 µM.

For the compound `O=C(O)/C=C/C(=O)c1ccc2c(c1)CCc1ccccc1-2`, the AC50 was 15 µM.

For `CC1CCC(C(C)C)C(OC(=O)Cn2c(-c3ccc(Cl)cc3)[n+](C)c3ccccc32)C1` (centres undefined), the AC50 was 6.29 µM.

Turning to `COc1ccc2nc(C)cc(NCc3cccc(C(F)(F)F)c3)c2c1`, the AC50 is 18.2 µM.
